“And” between values parts separate entries of the source, which are not always exact repeats. Identical values can stand only once. Inconclusive results and toxic doses are left out.

The assay relates to CD2F1 mice, L1210 leukemia ip, survival T/C. Briefly: NCI In Vivo Anticancer Drug Screen. Data for tumor model L1210 Leukemia (intraperitoneal) in CD2F1 (CDF1) mice. The settings on record: higher = longer survival. The procedure, abridged:
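Read-out first: treated-group measurement over vehicle-control measurement, expressed as a ratio. Animals bore a transplanted tumor line and were dosed with compound or vehicle.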

The mark [1] stands for this setting: endpoint: mean survival time, dose: 100.0 mg/kg/injection, schedule: Q04DX003 (ip), vehicle: saline.
Setting [2] is: endpoint: mean survival time, dose: 50.0 mg/kg/injection, schedule: Q01DX009 (ip), vehicle: Klucel (hydroxypropylcellulose) (HPC).
Setting [3] is: endpoint: mean survival time, dose: 100.0 mg/kg/injection, schedule: Q01DX009 (ip), vehicle: Klucel (hydroxypropylcellulose) (HPC).
Where [4] appears, read: endpoint: mean survival time, dose: 200.0 mg/kg/injection, schedule: Q01DX009 (ip), vehicle: Klucel (hydroxypropylcellulose) (HPC).
[5] abbreviates: endpoint: mean survival time, dose: 400.0 mg/kg/injection, schedule: Q01DX009 (ip), vehicle: Klucel (hydroxypropylcellulose) (HPC).
The mark [6] stands for this setting: endpoint: mean survival time, dose: 100.0 mg/kg/injection, schedule: Q04DX003 (ip), vehicle: saline with Tween-80.
Where [7] appears, read: endpoint: mean survival time, dose: 200.0 mg/kg/injection, schedule: Q04DX003 (ip), vehicle: saline with Tween-80.
Where [8] appears, read: endpoint: mean survival time, dose: 50.0 mg/kg/injection, schedule: Q01DX009 (ip), vehicle: saline with Tween-80.
The mark [9] stands for this setting: endpoint: mean survival time, dose: 100.0 mg/kg/injection, schedule: Q01DX009 (ip), vehicle: saline with Tween-80.
Where [10] appears, read: endpoint: mean survival time, dose: 200.0 mg/kg/injection, schedule: Q01DX009 (ip), vehicle: saline with Tween-80.
The mark [11] stands for this setting: endpoint: mean survival time, dose: 400.0 mg/kg/injection, schedule: Q04DX003 (ip), vehicle: saline with Tween-80.
[12] abbreviates: endpoint: mean survival time, dose: 100.0 mg/kg/injection, schedule: Q01DX001 (ip), vehicle: Klucel (hydroxypropylcellulose) (HPC).
Where [13] appears, read: endpoint: mean survival time, dose: 200.0 mg/kg/injection, schedule: Q01DX001 (ip), vehicle: Klucel (hydroxypropylcellulose) (HPC).
Where [14] appears, read: endpoint: mean survival time, dose: 400.0 mg/kg/injection, schedule: Q01DX001 (ip), vehicle: Klucel (hydroxypropylcellulose) (HPC).
Setting [15] is: endpoint: mean survival time, dose: 25.0 mg/kg/injection, schedule: Q04DX002 (ip), vehicle: saline with Tween-80.
Setting [16] is: endpoint: mean survival time, dose: 50.0 mg/kg/injection, schedule: Q04DX002 (ip), vehicle: saline with Tween-80.

With `O=S(=O)(O)c1ccc(-c2nnc(-c3ccccn3)nc2-c2ccc(S(=O)(=O)O)cc2)cc1`, the T/C (endpoint: mean survival time, dose: 100.0 mg/kg/injection, schedule: Q01DX009 (ip), vehicle: saline sonified) is 96 % of control; the T/C under setting [1] is 97 % of control; the T/C (endpoint: mean survival time, dose: 200.0 mg/kg/injection, schedule: Q01DX009 (ip), vehicle: saline sonified) was 98 % of control; the T/C (endpoint: mean survival time, dose: 200.0 mg/kg/injection, schedule: Q04DX003 (ip), vehicle: saline) is 97 % of control; the T/C (endpoint: mean survival time, dose: 400.0 mg/kg/injection, schedule: Q01DX009 (ip), vehicle: saline sonified) is 94 % of control; the T/C (endpoint: mean survival time, dose: 400.0 mg/kg/injection, schedule: Q04DX003 (ip), vehicle: saline) was 92 % of control.
Turning to `CNC(=O)c1n[nH]c(C)c1[N+](=O)[O-]`, the T/C is, setting by setting: (endpoint: mean survival time, dose: 25.0 mg/kg/injection, schedule: Q01DX009 (ip), vehicle: Klucel (hydroxypropylcellulose) (HPC)) 107 % of control; under setting [2], 107 % of control; under setting [3], 107 % of control; under setting [4], 104 % of control; under setting [5], 102 % of control.
With `COc1cc(CN(C)CCO)ccc1OCc1ccccc1`, the T/C was 102 % of control under setting [6] and 96 % of control under setting [7].
Turning to `OCC(O)C(O)C(O)C(O)/C=N/O` (configuration not stated), the T/C runs as follows: under setting [8], 97 % of control; under setting [9], 97 % of control; under setting [10], 104 % of control.
`Cc1cc2n[se]nc2cc1C`: the T/C by setting is: (endpoint: median survival time, dose: 3.12 mg/kg/injection, schedule: Q01DX009 (ip), vehicle: Klucel (hydroxypropylcellulose) (HPC)) 94 % of control; (endpoint: median survival time, dose: 6.25 mg/kg/injection, schedule: Q01DX009 (ip), vehicle: Klucel (hydroxypropylcellulose) (HPC)) 95 % of control; (endpoint: median survival time, dose: 12.5 mg/kg/injection, schedule: Q01DX009 (ip), vehicle: Klucel (hydroxypropylcellulose) (HPC)) 98 % of control; (endpoint: median survival time, dose: 25.0 mg/kg/injection, schedule: Q01DX009 (ip), vehicle: Klucel (hydroxypropylcellulose) (HPC)) 101 % of control.
`CC(C)OC(=O)CC#N`: the T/C is, setting by setting: under setting [6], 96 % of control; under setting [7], 105 % of control; under setting [11], 96 % of control.
As for `C1=C[S+](c2ccccc2)C(c2ccccc2)c2ccccc21` (configuration not stated), the T/C was 106 % of control (endpoint: mean survival time, dose: 12.5 mg/kg/injection, schedule: Q04DX002 (ip), vehicle: Klucel (hydroxypropylcellulose) (HPC)) and 115 % of control (endpoint: mean survival time, dose: 25.0 mg/kg/injection, schedule: Q04DX002 (ip), vehicle: Klucel (hydroxypropylcellulose) (HPC)).
As to `CCOC(=O)C1(C(=O)OCC)CCC(OCC)N1C(=O)c1ccccc1[N+](=O)[O-]` (configuration not stated), the T/C under setting [12] was 100 % of control, the T/C under setting [13] was 92 % of control and the T/C under setting [14] was 92 % of control.
As to `NCc1cc(O)c(O)c(O)c1`, the T/C was 114 % of control (endpoint: median survival time, dose: 37.5 mg/kg/injection, schedule: Q01DX005 (ip), vehicle: saline); 153 % of control (endpoint: median survival time, dose: 150.0 mg/kg/injection, schedule: Q01DX005 (ip), vehicle: saline); 156 % of control and 160 % of control (endpoint: median survival time, dose: 300.0 mg/kg/injection, schedule: Q01DX005 (ip), vehicle: saline).
`CC1CCSCS1` (configuration not stated): the T/C is 97 % of control (endpoint: mean survival time, dose: 12.5 mg/kg/injection, schedule: Q04DX002 (ip), vehicle: saline with Tween-80); 102 % of control under setting [15]; 102 % of control under setting [16].
Take `O=C1CCC(=O)N1N1C(=O)CCC1=O`: the T/C is, setting by setting: under setting [12], 101 % of control; under setting [13], 96 % of control; under setting [14], 96 % of control.
Take `O=C1Nc2ccccc2/C1=C\c1ccccc1O`: the T/C runs as follows: under setting [2], 93 % of control; under setting [3], 87 % of control; under setting [4], 96 % of control; under setting [5], 96 % of control.
`O=c1[nH]c(=O)n(C2CC(O)C(CO)O2)cc1C1SCCS1` (configuration not stated): the T/C (endpoint: mean survival time, dose: 3.8 mg/kg/injection, schedule: Q01DX005 (ip), vehicle: water) is 102 % of control; the T/C (endpoint: mean survival time, dose: 7.5 mg/kg/injection, schedule: Q01DX005 (ip), vehicle: water) is 98 % of control; the T/C (endpoint: mean survival time, dose: 15.0 mg/kg/injection, schedule: Q01DX005 (ip), vehicle: water) was 95 % of control; the T/C (endpoint: mean survival time, dose: 30.0 mg/kg/injection, schedule: Q01DX005 (ip), vehicle: water) is 87 % of control; the T/C (endpoint: mean survival time, dose: 60.0 mg/kg/injection, schedule: Q01DX005 (ip), vehicle: water) was 106 % of control.
As to `CCCCNc1cc(=O)[nH]c(=O)[nH]1`, the T/C by setting is: (endpoint: mean survival time, dose: 50.0 mg/kg/injection, schedule: Q01DX001 (ip), vehicle: saline with Tween-80) 104 % of control; (endpoint: mean survival time, dose: 100.0 mg/kg/injection, schedule: Q01DX001 (ip), vehicle: saline with Tween-80) 98 % of control; (endpoint: mean survival time, dose: 200.0 mg/kg/injection, schedule: Q01DX001 (ip), vehicle: saline with Tween-80) 102 % of control.
Regarding `NC1=NCN2C(=N1)OC1C(O)C(CO)OC12` (configuration not stated), the T/C by setting is: (endpoint: mean survival time, dose: 1.56 mg/kg/injection, schedule: Q01DX009 (ip), vehicle: saline) 94 % of control and 106 % of control; (endpoint: mean survival time, dose: 3.12 mg/kg/injection, schedule: Q01DX009 (ip), vehicle: saline) 91 % of control and 102 % of control; (endpoint: mean survival time, dose: 6.25 mg/kg/injection, schedule: Q01DX009 (ip), vehicle: saline) 91 % of control and 103 % of control; (endpoint: mean survival time, dose: 12.5 mg/kg/injection, schedule: Q01DX009 (ip), vehicle: saline) 91 % of control; (endpoint: mean survival time, dose: 25.0 mg/kg/injection, schedule: Q01DX009 (ip), vehicle: saline) 91 % of control and 100 % of control; (endpoint: mean survival time, dose: 50.0 mg/kg/injection, schedule: Q01DX009 (ip), vehicle: saline) 91 % of control and 97 % of control. In addition, the T/C is 92 % of control and 96 % of control (endpoint: mean survival time, dose: 100.0 mg/kg/injection, schedule: Q01DX009 (ip), vehicle: saline); 88 % of control and 100 % of control (endpoint: mean survival time, dose: 200.0 mg/kg/injection, schedule: Q01DX009 (ip), vehicle: saline).
`C[PH+](CC[PH+](c1ccccc1)c1ccccc1)c1ccccc1.[C-]#[O+].[C-]#[O+].[C-]#[O+].[C-]#[O+].[Mo]` (configuration not stated): the T/C reads like this: under setting [15], 93 % of control; under setting [16], 89 % of control; (endpoint: mean survival time, dose: 100.0 mg/kg/injection, schedule: Q04DX002 (ip), vehicle: saline with Tween-80) 89 % of control.
On to `Nc1nc2ccc(Cl)cc2[nH]1`, for which the T/C under setting [2] is 93 % of control and the T/C under setting [3] is 91 % of control.
Turning to `ClC1(Cl)C2(Cl)C3(Cl)C4(Cl)C(Cl)(Cl)C5(Cl)C3(Cl)C1(Cl)C5(Cl)C24Cl` (configuration not stated), the T/C was 97 % of control under setting [9]; 103 % of control under setting [6]; 102 % of control under setting [10]; 94 % of control under setting [7]; 100 % of control (endpoint: mean survival time, dose: 400.0 mg/kg/injection, schedule: Q01DX009 (ip), vehicle: saline with Tween-80); 96 % of control under setting [11].
With `CCCCC(C#N)(CCCC)C(=O)OCC`, the T/C is, setting by setting: under setting [8], 101 % of control; under setting [9], 91 % of control; under setting [10], 97 % of control.
As to `CCn1c(C)[n+](CC)c2ccc(C(C)=O)cc21`, the T/C runs as follows: (endpoint: mean survival time, dose: 25.0 mg/kg/injection, schedule: Q04DX003 (ip), vehicle: saline) 104 % of control; (endpoint: mean survival time, dose: 50.0 mg/kg/injection, schedule: Q04DX003 (ip), vehicle: saline) 108 % of control; under setting [1], 106 % of control.
`NC(N)=N/N=C/C/C=N/N=C(N)N`: the T/C is 91 % of control (endpoint: mean survival time, dose: 30.0 mg/kg/injection, schedule: Q01DX009 (ip), vehicle: saline); 90 % of control (endpoint: mean survival time, dose: 60.0 mg/kg/injection, schedule: Q01DX009 (ip), vehicle: saline); 93 % of control (endpoint: mean survival time, dose: 120.0 mg/kg/injection, schedule: Q01DX009 (ip), vehicle: saline); 90 % of control (endpoint: mean survival time, dose: 240.0 mg/kg/injection, schedule: Q01DX009 (ip), vehicle: saline); 90 % of control (endpoint: mean survival time, dose: 480.0 mg/kg/injection, schedule: Q01DX009 (ip), vehicle: saline).
Turning to `N#Cc1cccc2c(S(=O)(=O)O)cccc12`, the T/C is 98 % of control under setting [6], 90 % of control under setting [7] and 104 % of control under setting [11].

Values taken from PubChem BioAssay AID256 (DTP/NCI, 2004).
